In PubChem BioAssay AID588567 (Sanford-Burnham Center for Chemical Genomics, 2011):
The source made the active and inactive calls.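 Rule for the calls: active = mean IC50 at or below 20 µM; inactive = the rest.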

System: CHO-CHOP cells viability, ATPlite luminescence, 24 h
Experiment: cytotoxicity in CHO-CHOP reporter cells, SAR follow-up, cytotoxicity control for UPR adaptive arm activator project, cell-based, 24 h exposure, ATPlite luminescence (AID 588567)

O=C(Nc1ccc(C(F)(F)F)cc1)c1cc(-c2ccncc2)nc2ccccc12
IC50: 61.3 µM (inactive)

O=C(Nc1ccc(Cl)cc1)c1cc(-c2ccncc2)nc2ccccc12
IC50: 63.7 µM (inactive)

Cc1ccc(NC(=O)c2cc(-c3ccncc3)nc3ccccc23)cc1
IC50: > 80 µM (inactive)

Cc1nc(Nc2nc(-c3ccccc3)cc(=O)[nH]2)nc2ccccc12
IC50: 30.2 µM (inactive)

O=C(Nc1ccc(Br)c(C(F)(F)F)c1)c1cc(-c2ccncc2)nc2ccccc12
IC50: 50.1 µM (inactive)

O=C(Nc1ccc(F)cc1)c1cc(-c2ccncc2)nc2ccccc12
IC50: > 80 µM (inactive)

Cc1cc(Br)cc(NC(=O)c2cc(-c3ccncc3)nc3ccccc23)c1
IC50: 64.8 µM (inactive)
